Reference: the NIST ThermoML archive (doi:10.1016/j.fluid.2016.02.011)
± gives the expanded uncertainty stated by the source.

Experiment: heat capacity at constant pressure per volume; xn = mol fraction of the nth substance listed
Conditions: 102.6 kPa, Liquid, DSC, Micro DSC III, x2 = 0.048

Brc1ccccc1 [bromobenzene] + CCCCCC[n+]1ccn(C)c1.O=S(=O)([N-]S(=O)(=O)C(F)(F)F)C(F)(F)F
Conditions | heat capacity [J/K/m3]
287.65 K | 1529000 ± 59000
287.9 K | 1529000 ± 59000
288.19 K | 1529000 ± 59000
288.46 K | 1529000 ± 59000
288.75 K | 1530000 ± 60000
289.02 K | 1531000 ± 59000
289.31 K | 1531000 ± 59000
289.59 K | 1531000 ± 59000
289.87 K | 1532000 ± 59000
290.14 K | 1533000 ± 59000
290.43 K | 1533000 ± 59000
290.74 K | 1533000 ± 59000
290.98 K | 1533000 ± 59000
291.26 K | 1534000 ± 59000
291.54 K | 1535000 ± 59000
291.82 K | 1537000 ± 60000
292.1 K | 1539000 ± 60000
292.38 K | 1541000 ± 60000
292.7 K | 1546000 ± 60000
292.8 K | 1536000 ± 60000
292.98 K | 1534000 ± 59000
293.27 K | 1533000 ± 59000
293.53 K | 1533000 ± 59000
293.82 K | 1533000 ± 59000
294.09 K | 1533000 ± 59000
294.37 K | 1533000 ± 59000
294.66 K | 1533000 ± 59000
294.94 K | 1533000 ± 59000
295.22 K | 1534000 ± 59000
295.5 K | 1534000 ± 59000
295.78 K | 1534000 ± 59000
296.06 K | 1534000 ± 59000
296.34 K | 1534000 ± 59000
296.62 K | 1534000 ± 59000
296.9 K | 1534000 ± 59000
297.18 K | 1534000 ± 59000
297.46 K | 1535000 ± 59000
297.74 K | 1535000 ± 59000
298.02 K | 1536000 ± 59000
298.3 K | 1536000 ± 59000
298.58 K | 1536000 ± 59000
298.86 K | 1536000 ± 59000
299.14 K | 1536000 ± 59000
299.42 K | 1537000 ± 60000
299.7 K | 1537000 ± 60000
299.98 K | 1537000 ± 60000
300.26 K | 1537000 ± 60000
300.54 K | 1538000 ± 60000
300.82 K | 1538000 ± 60000
301.1 K | 1538000 ± 60000
301.33 K | 1538000 ± 60000
301.6 K | 1538000 ± 60000
302.37 K | 1539000 ± 60000
302.98 K | 1539000 ± 60000
303.6 K | 1539000 ± 60000
304.21 K | 1540000 ± 60000
304.82 K | 1540000 ± 60000
305.43 K | 1541000 ± 60000
306.05 K | 1541000 ± 60000
306.66 K | 1541000 ± 60000
307.27 K | 1542000 ± 60000
307.88 K | 1542000 ± 60000
308.5 K | 1542000 ± 60000
309.11 K | 1543000 ± 60000
309.72 K | 1543000 ± 60000
310.34 K | 1544000 ± 60000
310.95 K | 1544000 ± 60000
311.56 K | 1545000 ± 60000
312.18 K | 1545000 ± 60000
312.79 K | 1545000 ± 60000
313.4 K | 1546000 ± 60000
314.01 K | 1546000 ± 60000
314.63 K | 1547000 ± 60000
315.24 K | 1547000 ± 60000
315.85 K | 1548000 ± 60000
316.46 K | 1548000 ± 60000
317.08 K | 1548000 ± 60000
317.69 K | 1549000 ± 60000
318.3 K | 1549000 ± 60000
318.92 K | 1550000 ± 60000
319.53 K | 1550000 ± 60000
320.14 K | 1551000 ± 60000
320.45 K | 1551000 ± 60000
320.75 K | 1551000 ± 60000
321.98 K | 1552000 ± 60000
322.59 K | 1552000 ± 60000
323.21 K | 1553000 ± 60000
323.82 K | 1553000 ± 60000
324.45 K | 1553000 ± 60000
325.05 K | 1554000 ± 60000
325.66 K | 1554000 ± 60000
326.27 K | 1555000 ± 60000
326.88 K | 1555000 ± 60000
327.5 K | 1556000 ± 60000
328.11 K | 1556000 ± 60000
328.72 K | 1557000 ± 60000
329.33 K | 1557000 ± 60000
329.95 K | 1558000 ± 60000
330.56 K | 1558000 ± 60000
331.02 K | 1559000 ± 60000
